Laboratory results reported in patent US20080242594A1, “Methods for Promoting Stem Cell Proliferation and Survival” (priority 2005, published 2008).

Columns and labels:
[1] = system: E13.5 cortical stem cells; experiment: Differentiation potential of embryonic CNS stem cells after Notch ligand treatment; format: cell-based, mouse; conditions: 5 days treatment in bFGF2 20 ng/ml, then mitogen withdrawal (WD) 3 days
Experimental: To test whether Notch activation promoted differentiation or fate commitment, these cultures were treated with either Jagged-1 or Delta-4 for 5 days, […] The proportion of cells expressing genes characteristic of the stem or differentiated cells was determined (FIG. 8A).
The multipotentiality of treated cells was tested more rigorously by plating them at clonal density (50 cells/cm^2). Following five days of Delta-4+FGF2 treatment and 5 days of differentiation, 65% of the clones contained GFAP+, TUJ1+, and CNPase+ cells (FIG. 8B).

Adult SVZ CNS SC = experiment: Multi-potentiality of adult CNS stem cells after mitogen withdrawal; format: cell-based, rat; conditions: FGF2 20 ng/ml 7 days, mitogen withdrawal 7 days
Experimental: Very little protein or mRNA were detected outside the SVZ (FIG. 4g). Adult CNS stem cells can be cultured as a monolayer in vitro (FIG. 4h) and they show similar responses to extracellular signals that regulate stem cell differentiation upon withdrawal of the mitogen that sustains the undifferentiated state (Johe et al., Genes Dev 10:3129-40, 1996). To ask if Notch activation promotes survival in rat adult SVZ cultures, isolated cells were grown in the presence of FGF2 with and without Delta-4 for one week. […] When FGF2 was withdrawn for a week, cells at clonal density generated all three CNS lineages (FIG. 8C, Table 4).

HSF6 hES cells = experiment: hES single cell plating efficiency, HSF-6; format: cell-based, human; conditions: singly dissociated cells on MEFs, treated daily for one week
Text: The human ES cell lines HSF-6 (University of California, San Francisco; NIH # UC06, Passage 38-120) and H1 and H9 (WiCell Research Institute, NIH # WA01 and […]) were maintained on mouse embryonic fibroblasts (MEF) according to the suppliers' protocols. Immunocytochemistry and FACS analysis for the expression of Oct4 and SSEA4 and SKY karyotyping established that the starting cells are undifferentiated and have a normal set of chromosomes. For single cell survival experiments, hES colonies were harvested after treatment with 1.5 mg/ml collagenase type IV (Invitrogen), separated from the MEF feeder cells by repeated washing by gravity, gently triturated to break up colonies into small aggregates, further dissociated into a single cell solution by trypsination (0.05% trypsin/0.04% EDTA) and transferred on MEF feeder cells at a density of 10000 cells/ml. Oct-4 positive colonies were counted six days after plating. […]
The pro-survival effects of activation of Notch and inhibition of JAK was tested on HSF-6 (NIH code UC06, http://escell.ucsf.edu), H1 (NIH code WA01, www.wicell.org) and H9 (NIH code WA09, www.wicell.org) hES cells. Singly dissociated hES cells were plated on mouse embryo fibroblasts (MEFs), treated daily for one week and colony numbers counted. […]

adult rats = experiment: Intraventricular infusion in normal adult rats, BrdU labeled cells; format: in vivo, rat
Experimental: In-vivo Experiments: All drugs were infused over one week using an Alzet osmotic pump (model 2001 delivering at a rate of 1 μl/hr for seven days). Briefly, an intracerebral cannula connected to the pump was inserted into the right lateral ventricle using the following stereotaxic coordinates: bregma AP +0, Lateral −1.5 mm dorso-ventral 3.3 mm. Animals received IP injection of the tracer BrdU (50 mg/kg) every 12 hours for 5 days beginning on day one post-operatively to label dividing cells.
(§1) Immuno-positive cells were analyzed by confocal microscopy counted using a non-biased system on slides obtained from homologous coronal slices containing the infarct of each animal at the position between +0.2 and −3.8 mm from the center of the bregma according to stereotaxic coordinates. Cells were enumerated in […] regions of interest, on both the ipsilateral and contralateral hemispheres (to cannula, or cannula and ischemic focus): subventricular zone (SVZ), corpus callosum and white matter and the peri-infarct cortex.
The effect of intraventricular administration of Delta-4 was studied in adult rats. As in other tissues, the numbers of stem cells in the adult CNS are precisely controlled. […] In vivo manipulations were designed to ask if Notch ligands can act alone or substantially alter the effect of FGF2 on the numbers of proliferating cells in the SVZ of the normal brain. Animals (N=5-6 per treatment) were fitted with a mini-osmotic pump administering artificial cerebrospinal fluid (ACSF, vehicle), FGF2, Delta-4, or a combination FGF2+Delta-4 for one week into the ventricles of three-month old rats. Animals were also given twice-daily injections of bromodeoxyuridine (BrdU) from post-op days two to six to label cells generated during this time window. Two groups of animals were analyzed at day 7 and day 45 relative to the initiation of protein delivery. Delta-4 doses were chosen to provide a roughly equal concentration in the rat adult cerebrospinal fluid as in the cell culture medium of our in vitro experiments.

[2] = system: spontaneously hypertensive rats (SHR) with permanent middle cerebral artery occlusion; experiment: Focal ischemia (PMCAO) in rats with intraventricular infusion; format: in vivo, rat; conditions: stroked animals
Experimental: For the induction of focal ischemia in rats, male spontaneously hypertensive rats (SHR) underwent permanent middle cerebral artery occlusion (PMCAO) (Leker et al., Stroke 33:1085-92, 2002). This is a highly reproducible model of focal irreversible cerebral ischemia that results in isolated fronto-parietal cortical injury. For motor disability evaluations, animals were analyzed with a standard motor disability protocol (Leker et al., Stroke 34:2000-6, 2003).
as §1
There is growing evidence for an endogenous repair process following injury to the telencephalon. […]
Treatment with Notch ligand with or without FGF2 increased the number of cells that were BrdU labeled in the days immediately following the injury and these cells survived for an additional 5 weeks (FIG. 6d). […] The behavior of animals in the 45 day groups were assessed at the indicated time points.

STAT3 = STAT3 phosphorylation (Ser727, Tyr705) immunoblot in CNS stem cells; format: cell-based, mouse
Text: Ligands that activate JAK/STAT signaling promote astrocytic differentiation of CNS stem cells (Johe et al., Genes Dev 10:3129-40, 1996; Raj an et al., J Neurosci 18:3620-9, 1998; Bonni et al., Science 278:477-83, 1997; Song et al., Nat Neurosci 7:229-35, 2004; He et al., Nat Neurosci 8:616-625, 2005). When applying CNTF to CNS stem cells it was noted that low concentrations of CNTF stimulated survival but not expression of astrocyte specific genes. This is consistent with previous observations of Akt phosphorylation downstream of gp130 activation (Taga et al., Annu Rev Immunol 15:797-819, 1997). […] At high concentrations (20 ng/ml) the phosphorylation of Tyr705 can be blocked by an inhibitor of JAK while allowing a CNTF-induced increase in Ser727 phosphorylation (FIG. 2B) (Thompson et al., Bioorg Med Chem Lett 12:1219-23, 2002).
CNTF was used as a positive control; CNTF, induced the phosphorylation on both sites. With both CNTF and Notch activation, phosphorylation peaked at around 30 min. STAT3 phosphorylation on Ser727 following Notch activation was sensitive to the γ-secretase inhibitor DAPT (FIG. 2e). […] In contrast to CNTF, no Tyr705 phosphorylation was detected at any of the doses of Notch receptor ligands.
It was determined that insulin also maintains phosphorylation of serine 727 in STAT3 in foetal neural stem cell cultures.

Notch1 = experiment: Notch activation (Notch1IC / Notch ICD) immunocytochemical detection; format: cell-based, mouse
Text: Antibodies were used that specifically bind: Notch1IC (Chemicon, 5352), GFP (Molecular Probes, A11122), Oct3/4 (Santa Cruz, sc-5279), SSEA1 and SSEA4 (Developmental Studies HybridomaBank), Tra-1-60 (Chemicon, MAB4360), Tra-1-81 (Chemicon, MAB4381), human nestin (Chemicon, MAB5326), Sox-1 (Gift from Dr. R Lovell-Badge), TH (Pel-Freez, P40101-0), Tuj1 (Covance, MMS-435P), rat nestin (McKay Lab), GFAP (Dako, z0334), CNPase (Chemicon, MAB326), BrdU (Accurate, H5903), DCX (Santa Cruz, sc-8066), Sox2 (R&D, MAB2018), Hu (Molecular Probes, A21271).
To assay for Notch activation, cultures were treated with the Notch ligands for 1 hour and Notch1 activation was detected by immunocytochemical staining of Notch1IC (FIG. 1b).
(§2) It was determined that insulin facilitates Notch cleavage using immunocytochemical detection.

IGF1/insulin receptor = IGF1/insulin receptor phosphorylation in foetal NSC cultures; format: cell-based, mouse
Experimental: Specifically, D114 induced the phosphorylation of IGF1/insulin receptor. Peak phosphorylation occurred at 2-5 minutes.
as §2

[3] = system: mouse fetal central nervous system stem cell cultures; experiment: Survival of fetal CNS stem cell cultures with insulin and Dll4; format: cell-based
Experimental: (§3) As there was a tight correlation between the Notch survival pathway and Hes3, it was investigated as to whether Hes3 is a mediator of the Notch pro-survival signalling. It was determined that both insulin and Notch activation promote the survival of foetal and adult neural stem cell cultures and their effects are additive (Tables 8-9).

[4] = system: rat adult subventricular zone central nervous system stem cell cultures; experiment: Survival of adult SVZ CNS stem cell cultures with insulin and Dll4; format: cell-based
Experimental: as §3

[5] = system: adult rat subventricular zone (SVZ); experiment: Dividing (BrdU+) cells in SVZ after single lateral ventricle injection; format: in vivo; conditions: BrdU for 3 days, sacrificed on the 5th day
Experimental: In vivo, Notch and insulin also increase the number of dividing cells in the adult rat subventricular zone (SVZ) 5 days after a single injection It was determined that Notch and insulin co-operate to promote new (BrdU+) cells in vivo. Specifically, the reagents infused in the lateral ventricle of adult rats as a single injection. The rats were then given BrdU for 3 days and sacrificed on the 5th day (Table 10).

[6] = Insulin withdrawal, 2 days and then treat for 1 h

## FGF2: fibroblast growth factor FGF2 (233-FB) from R&D
[1]
  % Glia (GFAP): 49.53 ± 4.79%
  % Neurons (TUJ1): 42.37 ± 6.85%
  % Oligodendrocytes (CNPase): 9.12 ± 2.82%
Adult SVZ CNS SC
  % Glia (GFAP): 51.8 ± 10.3%
  % Neurons (TUJ1): 43.3 ± 10.7%
  % Oligodendrocytes (CNPase): 9.4 ± 2.6%
HSF6 hES cells
  plating efficiency relative to FGF2 controls: 100%±15.35
Adult rats; day 7, contralateral site
  number of proliferating cells / BrdU incorporation: no significant effect over vehicle
Adult rats; day 7, hemisphere ipsilateral to the cannula
  number of BrdU labeled cells in SVZ, corpus callosum and cortex: increased the number of BrdU labeled cells
[2]
  size of the injury: 21.0%±3.5 % of hemisphere volume

## Ins: insulin in the culture medium or infused
STAT3; +Ins, 2 days
  STAT3-S727: High
  STAT3-Y705: No signal
STAT3; −Ins, 2 days→ +Ins, 1 hour
  STAT3-S727: High
  STAT3-Y705: No signal
Notch1; +Ins, no withdrawal
  Notch ICD: High
Notch1; [6]
  Notch ICD: High
IGF1/insulin receptor; +Ins, no withdrawal
  pIGF1 (19H7): High
  pIGF1 (3021): High
IGF1/insulin receptor; [6]
  pIGF1 (19H7): High
  pIGF1 (3021): High
[3]
  Cell #: Medium
[4]
  Cell #: Medium
[5]
  Cell #: Medium
